Results reported in ChEMBL document CHEMBL4020779, “Thio-functionalized carbohydrate thiosemicarbazones and evaluation of their anticancer activity” (Bioorg Med Chem Lett, 2017).
Active and inactive are the calls of the source. The rule behind the calls is not given here.

Assays:
LoVo [1] = experiment: Cytotoxicity against human LoVo cells after 72 hrs by CCK8 assay; assay type: functional, cell-based
A2780 [2] = experiment: Induction of DNA fragmentation in human A2780 cells assessed as apoptotic cells at 0.115 uM after 24 hrs by BrdU/FITC staining-based TUNEL assay (reference value: 3.9%); assay type: functional
A2780 [3] = experiment: Induction of oxidative stress in human A2780 cells assessed as increase in ROS level in cytoplasm at IC50 after 1 hr by H2DCF-DA probe based fluorescence assay; assay type: functional, cell-based
LoVo [4] = experiment: Induction of apoptosis in human LoVo cells assessed as viable cells at 426 uM after 24 hrs by Annexin-V-FITC/propidium iodide staining-based flow cytometric analysis (reference value: 89.7%); assay type: functional; details: read-out: Activity
MCF7 [5] = experiment: Cytotoxicity against human MCF7 cells after 72 hrs by CCK8 assay; assay type: functional, cell-based; details: MCF7, 72 h
A2780 [6] = experiment: Induction of apoptosis in human A2780 cells assessed as apoptotic cells at 460.6 uM after 24 hrs by Annexin-V-FITC/propidium iodide staining-based flow cytometric analysis (reference value: 2%); assay type: functional
M059J [7] = experiment: Genotoxicity in human M059J cells assessed as induction of DNA damage at 500 uM after 1 hr under alkaline condition by comet assay relative to control; assay type: functional
A2780 [8] = experiment: Induction of apoptosis in human A2780 cells assessed as viable cells at 460.6 uM after 24 hrs by Annexin-V-FITC/propidium iodide staining-based flow cytometric analysis (reference value: 93.9%); assay type: functional; details: A2780, 24 h, read-out: Activity
A2780 [9] = experiment: Induction of apoptosis in human A2780 cells assessed as apoptotic cells at 0.115 uM after 24 hrs by Annexin-V-FITC/propidium iodide staining-based flow cytometric analysis (reference value: 2%); assay type: functional
LoVo [10] = experiment: Induction of DNA fragmentation in human LoVo cells assessed as viable cells at 460.6 uM after 24 hrs by BrdU/FITC staining-based TUNEL assay (reference value: 99.2%); assay type: functional; details: read-out: Activity
A2780 [11] = experiment: Induction of oxidative stress in human A2780 cells assessed as increase in ROS level in cytoplasm at IC20 after 1 hr by H2DCF-DA probe based fluorescence assay; assay type: functional, cell-based
HeLa [12] = experiment: Genotoxicity in human HeLa cells assessed as induction of DNA damage at 500 uM after 1 hr under alkaline condition by comet assay relative to control; assay type: functional
A2780 [13] = experiment: Induction of apoptosis in human A2780 cells assessed as necrotic cells at 0.115 uM after 24 hrs by Annexin-V-FITC/propidium iodide staining-based flow cytometric analysis (reference value: 4.1%); assay type: functional
A2780 [14] = experiment: Cytotoxicity against human A2780 cells after 72 hrs by CCK8 assay; assay type: functional, cell-based; details: A2780, 72 h
LoVo [15] = experiment: Induction of apoptosis in human LoVo cells assessed as necrotic cells at 0.106 uM after 24 hrs by Annexin-V-FITC/propidium iodide staining-based flow cytometric analysis (reference value: 2.9%); assay type: functional
LoVo [16] = experiment: Induction of apoptosis in human LoVo cells assessed as apoptotic cells at 426 uM after 24 hrs by Annexin-V-FITC/propidium iodide staining-based flow cytometric analysis (reference value: 7.9%); assay type: functional
A2780 [17] = experiment: Induction of DNA fragmentation in human A2780 cells assessed as viable cells at 0.115 uM after 24 hrs by BrdU/FITC staining-based TUNEL assay (reference value: 96.1%); assay type: functional; details: A2780, 24 h, read-out: Activity
LoVo [18] = experiment: Induction of DNA fragmentation in human LoVo cells assessed as apoptotic cells at 460.6 uM after 24 hrs by BrdU/FITC staining-based TUNEL assay (reference value: 0.8%); assay type: functional
LoVo [19] = experiment: Induction of apoptosis in human LoVo cells assessed as apoptotic cells at 0.106 uM after 24 hrs by Annexin-V-FITC/propidium iodide staining-based flow cytometric analysis (reference value: 7.9%); assay type: functional
A2780 [20] = experiment: Induction of apoptosis in human A2780 cells assessed as viable cells at 0.115 uM after 24 hrs by Annexin-V-FITC/propidium iodide staining-based flow cytometric analysis (reference value: 93.9%); assay type: functional; details: A2780, 24 h, read-out: Activity
A2780 [21] = experiment: Induction of DNA fragmentation in human A2780 cells assessed as viable cells at 460.6 uM after 24 hrs by BrdU/FITC staining-based TUNEL assay (reference value: 96.1%); assay type: functional; details: A2780, 24 h, read-out: Activity
MCF7 [22] = experiment: Genotoxicity in human MCF7 cells assessed as induction of DNA damage at 500 uM after 1 hr under alkaline condition by comet assay relative to control; assay type: functional
A2780 [23] = experiment: Genotoxicity in human A2780 cells assessed as induction of DNA damage at 500 uM after 1 hr under alkaline condition by comet assay relative to control; assay type: functional
LoVo [24] = experiment: Induction of apoptosis in human LoVo cells assessed as viable cells at 0.106 uM after 24 hrs by Annexin-V-FITC/propidium iodide staining-based flow cytometric analysis (reference value: 89.7%); assay type: functional; details: read-out: Activity
LoVo [25] = experiment: Induction of apoptosis in human LoVo cells assessed as necrotic cells at 426 uM after 24 hrs by Annexin-V-FITC/propidium iodide staining-based flow cytometric analysis (reference value: 2.9%); assay type: functional
LoVo [26] = experiment: Induction of DNA fragmentation in human LoVo cells assessed as viable cells at 0.115 uM after 24 hrs by BrdU/FITC staining-based TUNEL assay (reference value: 99.2%); assay type: functional; details: read-out: Activity
A2780 [27] = experiment: Induction of DNA fragmentation in human A2780 cells assessed as apoptotic cells at 460.6 uM after 24 hrs by BrdU/FITC staining-based TUNEL assay (reference value: 3.9%); assay type: functional
LoVo [28] = experiment: Induction of DNA fragmentation in human LoVo cells assessed as apoptotic cells at 0.115 uM after 24 hrs by BrdU/FITC staining-based TUNEL assay (reference value: 0.8%); assay type: functional
A2780 [29] = experiment: Induction of apoptosis in human A2780 cells assessed as necrotic cells at 460.6 uM after 24 hrs by Annexin-V-FITC/propidium iodide staining-based flow cytometric analysis (reference value: 4.1%); assay type: functional
M059J [30] = experiment: Cytotoxicity against human M059J cells after 72 hrs by CCK8 assay; assay type: functional, cell-based
HeLa [31] = experiment: Cytotoxicity against human HeLa cells after 72 hrs by CCK8 assay; assay type: functional, cell-based
LoVo [32] = experiment: Genotoxicity in human LoVo cells assessed as induction of DNA damage at 500 uM after 1 hr under alkaline condition by comet assay relative to control; assay type: functional

CC(=O)OC[C@H]1O[C@@H](O[C@H]2[C@H](OC(C)=O)[C@@H](OC(C)=O)[C@H](S[C@@H]3CC(=O)[C@@H]4OC[C@H]3O4)O[C@@H]2COC(C)=O)[C@H](OC(C)=O)[C@@H](OC(C)=O)[C@H]1OC(C)=O
IC20 (LoVo [1]): 106 µM | IC50 (LoVo [1]): 426 µM | Activity (A2780 [2]): 15.5% | Activity (A2780 [3]): inactive | viability at 426 µM (LoVo [4]): 71.2% | IC50 (MCF7 [5]): 913 µM | Activity (A2780 [6]): 22.9% | Activity (M059J [7]): <10% | viability at 460.6 µM (A2780 [8]): 71.4% | Activity (A2780 [9]): 7% | viability at 460.6 µM (LoVo [10]): 90.6% | Activity (A2780 [11]): inactive | Activity (HeLa [12]): <10% | Activity (A2780 [13]): 1.4% | IC20 (A2780 [14]): 0.115 µM | IC50 (A2780 [14]): 461 µM | Activity (LoVo [15]): 5.5% | Activity (LoVo [16]): 16.3% | viability at 0.115 µM (A2780 [17]): 85.5% | Activity (LoVo [18]): 9.4% | Activity (LoVo [19]): 12.5% | viability at 0.115 µM (A2780 [20]): 91.6% | viability at 460.6 µM (A2780 [21]): 59% | Activity (MCF7 [22]): <10% | Activity (A2780 [23]): <10% | viability at 0.106 µM (LoVo [24]): 82% | Activity (LoVo [25]): 12.6% | viability at 0.115 µM (LoVo [26]): 96.7% | Activity (A2780 [27]): 41% | Activity (LoVo [28]): 6.3% | Activity (A2780 [29]): 5.7% | IC50 (M059J [30]): 827 µM | IC50 (HeLa [31]): 875 µM | Activity (LoVo [32]): 10 - 20%
